≈ marks a conversion by molar mass, not a printed value.
Columns and labels:
Assay type in all cases: functional
Bacillus subtilis = assay: Antibacterial activity against Bacillus subtilis assessed as growth inhibition after 18 hr by broth microdilution method
Staphylococcus aureus = assay: Antibacterial activity against Staphylococcus aureus assessed as growth inhibition after 18 hr by broth microdilution method
Escherichia coli = assay: Antibacterial activity against Escherichia coli assessed as growth inhibition after 18 hr by broth microdilution method
Vibrio cholerae = assay: Antibacterial activity against Vibrio cholerae assessed as growth inhibition after 18 hr by broth microdilution method
[1] = test system: Mycobacterium tuberculosis; assay: Antitubercular activity against Mycobacterium tuberculosis H37Rv assessed as growth inhibition after 5 days by microplate alamar blue assay; details: 120 h

Row | Compound | MIC (Bacillus subtilis) [µg/mL] | MIC (Staphylococcus aureus) [µg/mL] | MIC (Escherichia coli) [µg/mL] | MIC (Vibrio cholerae) [µg/mL] | MIC [1] [µg/mL]
1 | CCN(CC)c1ccc2cc(-c3nc4sc(S(N)(=O)=O)nn4c3CN3CCCC3)c(=O)oc2c1 | 62.5 (≈ 124 µM) | 62.5 (≈ 124 µM) | 8 (≈ 15.9 µM) | 8 (≈ 15.9 µM) | 25 (≈ 49.7 µM)
2 | CCN(CC)c1ccc2cc(-c3nc4sc(S(N)(=O)=O)nn4c3SC#N)c(=O)oc2c1 | 62.5 (≈ 131 µM) | 62.5 (≈ 131 µM) | 31.2 (≈ 65.6 µM) | 31.2 (≈ 65.6 µM) | 12.5 (≈ 26.2 µM)
3 | CCN(CC)c1ccc2cc(-c3nc4sc(S(=O)(=O)/N=C/N(C)C)nn4c3C=O)c(=O)oc2c1 | 16 (≈ 31.8 µM) | 16 (≈ 31.8 µM) | 4 (≈ 7.96 µM) | 4 (≈ 7.96 µM) | 1.6 (≈ 3.18 µM)
4 | CCN(CC)c1ccc2cc(-c3nc4sc(S(=O)(=O)/N=C/N(C)C)nn4c3CO)c(=O)oc2c1 | 31.2 (≈ 61.9 µM) | 31.2 (≈ 61.9 µM) | 8 (≈ 15.9 µM) | 8 (≈ 15.9 µM) | 3.12 (≈ 6.19 µM)
5 | CCN(CC)c1ccc2cc(-c3nc4sc(S(=O)(=O)/N=C/N(C)C)nn4c3/C=N/O)c(=O)oc2c1 | 62.5 (≈ 121 µM) | 62.5 (≈ 121 µM) | 16 (≈ 30.9 µM) | 16 (≈ 30.9 µM) | 25 (≈ 48.3 µM)
6 | CCN(CC)c1ccc2cc(-c3nc4sc(S(=O)(=O)/N=C/N(C)C)nn4c3C#N)c(=O)oc2c1 | 62.5 (≈ 125 µM) | 62.5 (≈ 125 µM) | 16 (≈ 32 µM) | 16 (≈ 32 µM) | 25 (≈ 50 µM)
7 | CCN(CC)c1ccc2cc(-c3nc4sc(S(=O)(=O)/N=C/N(C)C)nn4c3C3SCC(=O)N3c3ccccc3)c(=O)oc2c1 (stereo unspecified) | 16 (≈ 24.5 µM) | 16 (≈ 24.5 µM) | 1 (≈ 1.53 µM) | 1 (≈ 1.53 µM) | 0.8 (≈ 1.23 µM)
8 | CCN(CC)c1ccc2cc(-c3nc4sc(S(=O)(=O)/N=C/N(C)C)nn4c3/C=N/NC(=N)N)c(=O)oc2c1 | 16 (≈ 28.6 µM) | 16 (≈ 28.6 µM) | 1 (≈ 1.79 µM) | 1 (≈ 1.79 µM) | 0.8 (≈ 1.43 µM)
9 | CCN(CC)c1ccc2cc(-c3cn4nc(S(N)(=O)=O)sc4n3)c(=O)oc2c1 | 62.5 (≈ 149 µM) | 62.5 (≈ 149 µM) | 31.2 (≈ 74.5 µM) | 31.2 (≈ 74.5 µM) | 3.12 (≈ 7.45 µM)
10 | CCN(CC)c1ccc2cc(-c3nc4sc(S(N)(=O)=O)nn4c3CN3CCOCC3)c(=O)oc2c1 | 62.5 (≈ 121 µM) | 62.5 (≈ 121 µM) | 31.2 (≈ 60.3 µM) | 31.2 (≈ 60.3 µM) | 25 (≈ 48.2 µM)
11 | CCN(CC)c1ccc2cc(-c3nc4sc(S(N)(=O)=O)nn4c3CN3CCCCC3)c(=O)oc2c1 | 62.5 (≈ 121 µM) | 62.5 (≈ 121 µM) | 31.2 (≈ 60.5 µM) | 31.2 (≈ 60.5 µM) | 25 (≈ 48.4 µM)
12 | CCN(CC)c1ccc2cc(-c3nc4sc(S(N)(=O)=O)nn4c3Br)c(=O)oc2c1 | 62.5 (≈ 125 µM) | 62.5 (≈ 125 µM) | 16 (≈ 32.1 µM) | 16 (≈ 32.1 µM) | 6.25 (≈ 12.5 µM)
13 | CCN(CC)c1ccc2cc(-c3nc4sc(S(N)(=O)=O)nn4c3N=O)c(=O)oc2c1 | 125 (≈ 279 µM) | 125 (≈ 279 µM) | 31.2 (≈ 69.7 µM) | 31.2 (≈ 69.7 µM) | 50 (≈ 111 µM)
14 | CCn1cc(C(=O)O)c(=O)c2cc(F)c(N3CCNCC3)cc21 [NORFLOXACIN] | 2 (≈ 6.26 µM) | 2 (≈ 6.26 µM) | 16 (≈ 50.1 µM) | 1 (≈ 3.13 µM) | 
15 | NC(=O)c1cnccn1 [PYRAZINAMIDE] |  |  |  |  | 3.12 (≈ 25.4 µM)
16 | CN[C@@H]1[C@H](O[C@H]2[C@H](O[C@H]3[C@H](O)[C@@H](O)[C@H](N=C(N)N)[C@@H](O)[C@@H]3N=C(N)N)O[C@@H](C)[C@]2(O)C=O)O[C@@H](CO)[C@H](O)[C@H]1O [STREPTOMYCIN] |  |  |  |  | 6.25 (≈ 10.7 µM)

Reference: ChEMBL document CHEMBL3046572, “Synthesis and evaluation of antibacterial and antitubercular activities of some novel imidazo[2,1-b][1,3,4]thiadiazole derivatives” (2013)
